Source: patent US20260035338A1, “AMINO LIPID COMPOUND AND LIPID NANOPARTICLE FOR DELIVERING BIOACTIVE INGREDIENT” (SHENZHEN SHENXIN BIOTECHNOLOGY CO., LTD., priority 2022, published 2026)

Key:
[1] = tested on: BALB/c mice; assay: In vivo delivery of Fluc mRNA-encapsulating LNP formulations, luciferase signal by In Vivo Imaging System (IVIS); details: tail vein injection (IV) 70 μL, female BALB/c mice, 6 hours after injection; for Average number of photons (Total in-vivo flux): LNP formulation encapsulating Fluc mRNA (Lipid:DSPC:CHO-HP:M-DMG-2000 48:10:40.5:1.5); for Average number of photons (Liver) / Average number of photons (Spleen): LNP formulation encapsulating Fluc mRNA
Procedure: Animal preparation: Female BALB/c mice of 6-8 weeks old were selected and raised in an SPF grade breeding room. Animal testing was conducted in strict accordance with the guidelines of national health institutions and animal ethics requirements.
In vivo Delivery: prior to injection of the test LNP formulation, the LNP formulation was gently and repeatedly inverted to thoroughly mix the sample of the formulation. A corresponding amount of the LNP formulation was aspirated with a 1 ml insulin syringe, and the LNP formulation was injected by tail vein injection (IV), with 3 mice in duplicate per formulation. Each mouse was injected with 70 μL of the corresponding LNP formulation encapsulating the luciferase mRNA (Fluc mRNA) prepared in Experimental Example 1.
6 hours after injection of LNP formulations, mice were injected with 200 μL D-Luciferin luciferase developing substrate (Catalog No. 122799; Manufacturer: Perkin Elmer). After the substrate was injected, the mice were anesthetized with isoflurane inhalation, and the injection time of luciferase developing substrate was recorded.
The encapsulation efficiency of the lipid nanoparticle encapsulating luciferase mRNA (Fluc mRNA) with a representative amino lipid compound and the fluorescence expression intensity induced by the same are shown in Table 4, with the LNP formulation containing SM-102, 1001 or ALC-0315 as a control LNP formulation. The preparation method of the control LNP formulation was basically the same as that of the LNP formulations in Experimental Example 1, with the difference lying in that the amino lipid compounds of the present disclosure were replaced with SM-102, 1001 or ALC-0315 in the preparation of the control LNP formulation.

[2] = tested on: immune cell populations in the spleen and PBMC; assay: Delivery efficiency of eGFP mRNA LNP to immune cell populations in spleen and peripheral blood (flow cytometry); format: in vivo; details: eGFP mRNA encapsulating LNP, intravenous, C57BL/6 mice, 12 hours, flow cytometry (FIG. 6 to 7)
Procedure: C57BL/6 mice (3 mice per group) were intravenously injected with eGFP mRNA encapsulating LNP. After 12 hours, the mice were dissected, and the spleen and peripheral blood, were collected to prepare single-cell suspensions of various tissues and organs. After blocking with Fc blocking antibodies and surface staining with fluorescent-labeled antibodies, flow cytometry was conducted to analyze the expression levels of eGFP in various immune cell populations to confirm the delivery efficiency of lipid nanoparticles comprising different amino lipid compounds to immune cell populations in different tissues and organs.
“Blank” in FIG. 6 and FIG. 7 refers to the control group injected with 100 μL Tris buffer.

With CCCCCCOC(CCCOC(=O)CCCCCCCCC(CCCCCCCCC(=O)OCCCC(OCCCCCC)OCCCCCC)OC(=O)NCCCN1CCCCC1C)OCCCCCC (centres unmarked) [compound 399] the “Average number of photons (Total in-vivo flux)” value [1] was 9.00E+07, the “Average number of photons (Liver)” value [1] was 1.96E+07 and the “Average number of photons (Spleen)” value [1] was 2.05E+06.

With CCCCCCOC(CCCCCOC(=O)CCCCCCCCC(CCCCCCCCC(=O)OCCCCCC(OCCCCCC)OCCCCCC)OC(=O)OCCCN(CC)CC)OCCCCCC [compound 389] the “Average number of photons (Total in-vivo flux)” value [1] was 2.99E+07, the “Average number of photons (Liver)” value [1] was 4.14E+06 and the “Average number of photons (Spleen)” value [1] was 8.58E+04.

CCCCCCOC(CCCOC(=O)CCCCCCCCC(CCCCCCCCC(=O)OCCCC(OCCCCCC)OCCCCCC)OC(=O)N(CCCC(=O)OCCCCC)CCCN(C)C)OCCCCCC [compound 380] was tested, and the “Average number of photons (Total in-vivo flux)” value [1] was 4.05E+08, the “Average number of photons (Liver)” value [1] was 7.25E+07 and the “Average number of photons (Spleen)” value [1] was 6.79E+07.

With CCCCCCOC(CCCOC(=O)CCCCCC(CCCCCC(=O)OCCCC(OCCCCCC)OCCCCCC)OC(=O)OCCCN(C)C)OCCCCCC [compound 2039] the “Average number of photons (Total in-vivo flux)” value [1] was 2.05E+08, the “Average number of photons (Liver)” value [1] was 4.26E+07 and the “Average number of photons (Spleen)” value [1] was 3.75E+07. The “delivery efficiency to immune cell populations (eGFP expression)” value [2] was “different delivery preferences to different immune cells”.

In the case of CCCCCCOC(CCCOC(=O)CCCCCCCCC(CCCCCCCCC(=O)OCCCC(OCCCCCC)OCCCCCC)N(CCCN(C)C)C(=O)COC)OCCCCCC [compound 450], the “Average number of photons (Total in-vivo flux)” value [1] is reported as 4.38E+07, the “Average number of photons (Liver)” value [1] is reported as 7.96E+05 and the “Average number of photons (Spleen)” value [1] is reported as 3.18E+06.

CCCCCCOC(CCCOC(=O)CCCCCCCCC(CCCCCCCCC(=O)OCCCC(OCCCCC)OCCCCC)OC(=O)OCCCN(CC)CC)OCCCCCC (centres unmarked) [compound 861] was tested, and the “Average number of photons (Total in-vivo flux)” value [1] was 6.67E+07, the “Average number of photons (Liver)” value [1] was 1.17E+07 and the “Average number of photons (Spleen)” value [1] was 3.52E+05.

CCCCCCOC(CCCOC(=O)CCCCCCCCC(CCCCCCCCC(=O)OCCCC(OCCCCCC)OCCCCCC)OC(=O)OCCCN(CC)CC)OCCCCCC [compound 382] was tested, and the “Average number of photons (Total in-vivo flux)” value [1] was 5.28E+07, the “Average number of photons (Liver)” value [1] was 6.78E+06 and the “Average number of photons (Spleen)” value [1] was 1.88E+05. The “delivery efficiency to immune cell populations (eGFP expression)” value [2] was “different delivery preferences to different immune cells”.

With CCCCCCCCCOC(CCCOC(=O)CCCCCCCCC(CCCCCCCCC(=O)OCCCC(OCCCCCC)OCCCCCC)OC(=O)OCCCN(C)C)OCCCCCCCCC (centres unmarked) [compound 856] the “Average number of photons (Total in-vivo flux)” value [1] was 3.40E+07, the “Average number of photons (Liver)” value [1] was 9.34E+06 and the “Average number of photons (Spleen)” value [1] was 3.58E+05.

CCCCCCCCOC(CCCOC(=O)CCCCCCCCC(CCCCCCCCC(=O)OCCCC(OCCCCC)OCCCCC)OC(=O)OCCCN(CC)CC)OCCCCCCCC (centres unmarked) [compound 863] was tested, and the “Average number of photons (Total in-vivo flux)” value [1] was 4.43E+07, the “Average number of photons (Liver)” value [1] was 7.13E+06 and the “Average number of photons (Spleen)” value [1] was 2.88E+05.

For CCC/C=C\COC(CCCOC(=O)CCCCCCCCC(CCCCCCCCC(=O)OCCCC(OC/C=C\CCC)OC/C=C\CCC)OC(=O)OCCCN(CC)CC)OC/C=C\CCC [compound 392], the “Average number of photons (Total in-vivo flux)” value [1] was 8.20E+07, the “Average number of photons (Liver)” value [1] was 1.50E+07 and the “Average number of photons (Spleen)” value [1] was 6.65E+05.

CCCCCCC#CCCOC(=O)CCCCCCCOC(=O)CCCCCCCCC(CCCCCCCCC(=O)OCCCC(OCCCCCC)OCCCCCC)OC(=O)OCCCN(CC)CC (centres unmarked) [compound 437] was tested, and the “Average number of photons (Total in-vivo flux)” value [1] was 1.66E+07, the “Average number of photons (Liver)” value [1] was 2.66E+06 and the “Average number of photons (Spleen)” value [1] was 2.62E+06.

CCCCCCOC(CCOC(=O)CCCCCCCCC(CCCCCCCCC(=O)OCCC(OCCCCCC)OCCCCCC)OC(=O)OCCCN(C)C)OCCCCCC [compound 2035] was tested, and the “Average number of photons (Total in-vivo flux)” value [1] was 1.49E+08, the “Average number of photons (Liver)” value [1] was 3.12E+07 and the “Average number of photons (Spleen)” value [1] was 7.61E+05.

CCCCCCOC(CCCOC(=O)CCCCCCCCC(CCCCCCCCC(=O)OCCCC(OCCCCCC)OCCCCCC)OC(=O)OCCC1CCCN1C)OCCCCCC (centres unmarked) [compound 398] was tested, and the “Average number of photons (Total in-vivo flux)” value [1] was 1.79E+08, the “Average number of photons (Liver)” value [1] was 2.78E+07 and the “Average number of photons (Spleen)” value [1] was 6.36E+05.

With CCCCCCCC#CCOC(CCCOC(=O)CCCCCCCCC(CCCCCCCCC(=O)OCCCCCCCCCCOC)OC(=O)OCCCN(CC)CC)OCC#CCCCCCCC (centres unmarked) [compound 439] the “Average number of photons (Total in-vivo flux)” value [1] was 5.87E+07, the “Average number of photons (Liver)” value [1] was 1.25E+07 and the “Average number of photons (Spleen)” value [1] was 1.96E+06.
